Among the data in patent publication US9707234B2, “Spirocyclic hetercycle compounds useful as HIV integrase inhibitors” (MERCK SHARP & DOHME CORP., priority 2013, dated 2017) are IC50 values, retold here.

Like-named read-outs stand apart in the source and are kept apart here.

This assay has as its system HIV-1 (H9IIIB or NL4-3 virus) replication in MT4-GFP cells. The assay can be described thus: microbe, parasite or virus in culture. The assay is classed as cell-based. The following applies: inhibition of reproductive ratio R0, 48-72 h post-infection.
Setting [1] is: MT4-GFP cells infected with HIV-1, 100% normal human serum, read-out: ViKinG IP (nM) with 100% NHS.
Where [2] appears, read: MT4-GFP cells infected with HIV-1, serum free conditions (0% NHS), read-out: ViKinG IP (nM) with 0% NHS.
Where [3] appears, read: Human immunodeficiency virus 1, NL43, MT4-GFP cells infected with HIV-1, 100% normal human serum, read-out: ViKinG IP (nM) with 100% NHS.
The mark [4] stands for this setting: Human immunodeficiency virus 1, NL43, MT4-GFP cells infected with HIV-1, serum free conditions (0% NHS), read-out: ViKinG IP (nM) with 0% NHS.
Where [5] appears, read: Human immunodeficiency virus 1, NL43, MT4-GFP cells infected with HIV-1, 10% normal human serum, read-out: ViKinG IP (nM) with 10% NHS.
Where [6] appears, read: MT4-GFP cells infected with HIV-1, 10% normal human serum, read-out: ViKinG IP (nM) with 10% NHS.

Turning to `CC1OCCC12N(C)C(=O)c1c(O)c(=O)c(C(=O)NCc3cccc(Cl)c3F)cn1N2C` (single isomer, unassigned) [Compound 138], the IC50 by setting is: under setting [1], 134 nM; under setting [2], 0.6 nM.

As to `COCCCN1C(=O)c2c(O)c(=O)c(C(=O)NCc3ccc(F)cc3F)cn2CC12CCOC2` (single isomer, unassigned) [Compound 74], the IC50 under setting [1] came out at 28 nM and the IC50 under setting [2] was 3.3 nM.

On to `CCN1C(=O)c2c(O)c(=O)c(C(=O)NCc3ccc(F)cc3F)cn2CC12COC2` [Compound 69], for which the IC50 is, setting by setting: under setting [3], 452 nM; under setting [4], 3.5 nM.

Regarding `O=C(NCc1ccc(F)cc1F)c1cn2c(c(O)c1=O)C(=O)N(CCCCC(F)(F)F)C1(CCOCC1)C2` [Compound 47], the IC50 turned out to be 71 nM under setting [3] and 6.6 nM under setting [4].

On to `CC1OCCC12N(C)C(=O)c1c(O)c(=O)c(C(=O)NCc3ccc(F)cc3F)cn1N2C` (single isomer, unassigned) [Compound 133], for which, under setting [1], the IC50 was 55 nM.

For the molecule `COCCN1C(=O)c2c(O)c(=O)c(C(=O)NCc3ccc(F)cc3F)cn2CC12CCOC2` (single isomer, unassigned) [Compound 49], the IC50 is, setting by setting: under setting [3], 123 nM; under setting [4], 2.9 nM.

On to `CCOC(=O)N1CCC2(CC1)N(CC)C(=O)c1c(O)c(=O)c(-c3nnc(Cc4ccc(F)cc4F)s3)cn1N2C` [Compound 6], for which the IC50 is, setting by setting: under setting [5], 13 nM; under setting [3], 159 nM.

As to `COCCCN1C(=O)c2c(O)c(=O)c(C(=O)NCc3ccc(F)cc3F)cn2N(C)C12CCOC2` (single isomer, unassigned) [Compound 124], the IC50 under setting [6] was determined as 22 nM, the IC50 under setting [1] came out at 309 nM and the IC50 under setting [2] stood at 1.8 nM.

With `CN1C(=O)c2c(O)c(=O)c(C(=O)NCc3ccc(F)c(Cl)c3F)cn2N(C)C12CCOC2` (single isomer, unassigned) [Compound 117], the IC50 reads like this: under setting [4], 0.5 nM; under setting [1], 246 nM.

As for `CN1C(=O)c2c(O)c(=O)c(C(=O)NCc3ccc(F)cc3)cn2CC12CCOC2` (single isomer, unassigned) [Compound 59], the IC50 runs as follows: under setting [3], 56 nM; under setting [4], 1.9 nM.

As for `CC(c1nnc(-c2cn3c(c(O)c2=O)C(=O)N(C)C2(CCOC2)C3)s1)c1ccc(F)cc1F` (stereo not shown) [Compound 102], the IC50 came to 85 nM under setting [3] and 6.8 nM under setting [4].

In the case of `COCCCN1C(=O)c2c(O)c(=O)c(C(=O)NCc3ccc(F)cc3F)cn2N(C)C12CCOC2` (single isomer, unassigned) [Compound 123], the IC50 by setting is: under setting [4], 1.2 nM; under setting [6], 9 nM; under setting [1], 117 nM.

On to `CN1C(=O)c2c(O)c(=O)c(C(=O)NCc3ccc(F)cc3F)cn2N(CC2CC2)C12CCOC2` (single isomer, unassigned) [Compound 152], for which the IC50 runs as follows: under setting [1], 174 nM; under setting [2], 0.7 nM.

For `CN1C(=O)c2c(O)c(=O)c(C(=O)NCc3ccc(F)cc3F)cn2N(CCO)C12CCOC2` (stereo not shown) [Compound 148], the IC50 under setting [1] stood at 33 nM and the IC50 under setting [2] was found to be 1.2 nM.

On to `CN1C(=O)c2c(O)c(=O)c(-c3nnc(Cc4ccc(F)cc4F)s3)cn2N(C)C12CCN(C(N)=O)CC2` [Compound 29], for which the IC50 under setting [3] turned out to be 2080 nM and the IC50 under setting [4] amounted to 89.1 nM.

As for `COCCN1C(=O)c2c(O)c(=O)c(C(=O)NCc3ccc(F)c(Cl)c3F)cn2CC12CCOC2` (single isomer, unassigned) [Compound 54], the IC50 is, setting by setting: under setting [3], 989 nM; under setting [4], 2.3 nM.

For `CCOCCN1C(=O)c2c(O)c(=O)c(C(=O)NCc3ccc(F)cc3F)cn2N(C)C12COC2` [Compound 146], the IC50 under setting [3] is 485 nM and the IC50 under setting [4] was found to be 10.9 nM.

For `CN1C(=O)c2c(O)c(=O)c(C(=O)NCc3c(F)cccc3F)cn2N(C)C12CCOC2` (single isomer, unassigned) [Compound 115], the IC50 was determined as 54 nM under setting [3] and 1.2 nM under setting [4].

For `COCCCN1C(=O)c2c(O)c(=O)c(C(=O)NCc3ccc(F)cc3F)cn2N(C)C12CCOCC2` [Compound 141], the IC50 is, setting by setting: under setting [3], 71 nM; under setting [4], 2.3 nM.

On to `CN1C(=O)c2c(O)c(=O)c(C(=O)NCc3c(F)cc(F)cc3F)cn2CC12CCOC2` (single isomer, unassigned) [Compound 63], for which the IC50 is 17 nM under setting [3] and 1.9 nM under setting [4].

As to `CCOCCN1C(=O)c2c(O)c(=O)c(C(=O)NCc3ccc(F)cc3F)cn2N(C)C12CCOC2` (single isomer, unassigned) [Compound 126], the IC50 under setting [1] came to 455 nM and the IC50 under setting [2] is 1.3 nM.

With `CCN1C(=O)c2c(O)c(=O)c(C(=O)NCc3ccc(F)cc3F)cn2CC12CCCOC2` (stereo not shown) [Compound 81], the IC50 is 4.3 nM under setting [4] and 323 nM under setting [1].

As to `COCCN1C(=O)c2c(O)c(=O)c(C(=O)NCc3ccc(F)c(F)c3F)cn2CC12CCOC2` (single isomer, unassigned) [Compound 72], the IC50 runs as follows: under setting [1], 290 nM; under setting [2], 4.6 nM.

As for `CCN1C(=O)c2c(O)c(=O)c(-c3nnc(Cc4ccc(F)cc4F)s3)cn2N(C)C12CCOC2` (single isomer, unassigned) [Compound 36], the IC50 reads like this: under setting [1], 368 nM; under setting [2], 3.8 nM.

Regarding `CN1C(=O)c2c(O)c(=O)c(-c3nnc(Cc4ccc(F)cc4F)s3)cn2N(C)C12CCS(=O)(=O)CC2` [Compound 27], the IC50 under setting [5] was 72 nM, the IC50 under setting [3] turned out to be 712 nM and the IC50 under setting [4] was 21.2 nM.

Take `CN1C(=O)c2c(O)c(=O)c(C(=O)NCc3ccc(F)cc3F)cn2CC12CCOCC2` [Compound 39]: the IC50 reads like this: under setting [3], 49 nM; under setting [4], 4.2 nM.

As to `CCC(c1nnc(-c2cn3c(c(O)c2=O)C(=O)N(CC)C2(CCOCC2)C3)s1)c1ccc(F)cc1F` (stereo not shown) [Compound 100], the IC50 under setting [3] stood at 704 nM and the IC50 under setting [4] was 29.2 nM.

For the molecule `CCOC(=O)N1CCC2(CC1)Cn1cc(-c3nnc(Cc4ccc(F)cc4F)s3)c(=O)c(O)c1C(=O)N2C` [Compound 94], the IC50 was 116 nM under setting [3] and 10.6 nM under setting [4].

`CCN1C(=O)c2c(O)c(=O)c(-c3nnc(Cc4ccc(F)cc4F)s3)cn2N(C)C12CCCOC2` (stereo not shown) [Compound 37]: the IC50 under setting [3] worked out at 456 nM and the IC50 under setting [4] amounted to 5.3 nM.

For the molecule `COCN1C(=O)c2c(O)c(=O)c(C(=O)NCc3ccc(F)cc3F)cn2CC12CCOC2` (single isomer, unassigned) [Compound 75], the IC50 by setting is: under setting [4], 1.8 nM; under setting [1], 559 nM.

Take `COCN1n2cc(C(=O)NCc3ccc(F)cc3F)c(=O)c(O)c2C(=O)N(C)C12CCOC2` (single isomer, unassigned) [Compound 153]: the IC50 by setting is: under setting [4], 1.3 nM; under setting [1], 275 nM.

Turning to `CN1C(=O)c2c(O)c(=O)c(C(=O)NCc3ccc(F)cc3)cn2CC12CCOC2` (single isomer, unassigned) [Compound 60], the IC50 runs as follows: under setting [1], 42 nM; under setting [2], 3.1 nM.

Consider `CN1C(=O)c2c(O)c(=O)c(C(=O)NCc3cccc(Cl)c3F)cn2N(C)C12CCOC2` (single isomer, unassigned) [Compound 110], for which, under setting [1], the IC50 came out at 121 nM.

In the case of `CCOC(=O)N1CCC2(C1)N(CC)C(=O)c1c(O)c(=O)c(C(=O)NCc3ccc(F)cc3F)cn1N2C` (single isomer, unassigned) [Compound 139], the IC50 worked out at 1.5 nM under setting [4] and 247 nM under setting [1].

On to `CN1C(=O)c2c(O)c(=O)c(C(=O)NCc3ccc(F)cc3F)cn2N(C)C12CCOC2` (stereo not shown) [Compound 104], for which the IC50 reads like this: under setting [6], 4 nM; under setting [1], 87 nM; under setting [2], 0.8 nM.

In the case of `COCCN1C(=O)c2c(O)c(=O)c(C(=O)NCc3ccc(F)c(Cl)c3)cn2CC12CCOC2` (single isomer, unassigned) [Compound 52], the IC50 amounted to 2000 nM under setting [3] and 4.8 nM under setting [4].

For the molecule `CCN1C(=O)c2c(O)c(=O)c(C(=O)NCc3ccc(F)cc3F)cn2N(C)C12CCOC2` (single isomer, unassigned) [Compound 120], the IC50 under setting [1] was 266 nM and the IC50 under setting [2] was 2.1 nM.

For the molecule `CN1C(=O)c2c(O)c(=O)c(C(=O)NCc3ccc(F)cc3F)cn2CC12CCNCC2` [Compound 88], the IC50 was determined as 97 nM under setting [3] and 10.3 nM under setting [4].

Regarding `CCN1n2cc(C(=O)NCc3ccc(F)cc3F)c(=O)c(O)c2C(=O)N(C)C12CCOC2` (single isomer, unassigned) [Compound 149], the IC50 is, setting by setting: under setting [4], 0.7 nM; under setting [1], 144 nM.

For `CN1C(=O)c2c(O)c(=O)c(C(=O)NCc3c(F)cc(F)cc3F)cn2N(C)C12CCOC2` (single isomer, unassigned) [Compound 105], the IC50 by setting is: under setting [3], 37 nM; under setting [4], 0.8 nM.

As for `CN1C(=O)c2c(O)c(=O)c(-c3nnc(Cc4ccc(F)cc4F)s3)cn2N(C)C12CCN(S(C)(=O)=O)CC2` [Compound 26], the IC50 under setting [5] was found to be 26 nM, the IC50 under setting [3] is 161 nM and the IC50 under setting [4] stood at 11.5 nM.

Consider `CCOC(=O)N1CCC2(CC1)Cn1cc(-c3nnc(Cc4ccc(F)cc4F)s3)c(=O)c(O)c1C(=O)N2CC` [Compound 95], for which the IC50 runs as follows: under setting [3], 104 nM; under setting [4], 11.6 nM.

With `CC1OCCC12N(C)C(=O)c1c(O)c(=O)c(C(=O)NCc3cccc(Cl)c3F)cn1N2C` (single isomer, unassigned) [Compound 136], the IC50 under setting [1] stood at 83 nM.

With `CN1C(=O)c2c(O)c(=O)c(C(=O)NCc3ccc(F)cc3F)cn2N(C)C12COC2` [Compound 143], the IC50 by setting is: under setting [5], 7 nM; under setting [3], 78 nM; under setting [4], 1.4 nM.
